These results are taken from patent US10898460B1, “Leishmania inhibitors” (University of South Florida, priority 2018, dated 2021).

The assay concerns Leishmania donovani. As to the kind of experiment: Bioassay against Leishmania donovani. It is filed as cell-based. An excerpt: Marine invertebrates from Antarctica have been investigated for their potential natural product chemistry. Often sessile, these organisms must develop chemical protective mechanisms to survive and defend themselves against predators. The biodiversity of these organisms is of particular interest due to the extremely low temperatures and the circumpolar current around the Antarctic continent serving as an ecological isolating shield. The chemodiversity that emanates from these organisms can be a significant source of chemistry to be further developed into new drugs. The chemical investigation of an undescribed Gersemia sp. Antarctic coral has led to the isolation of two different kinds of bioactive compounds. After lyophilization of the organism, two different extractions were performed: the first one used a methylene chloride: methanol (1:1) solvent mixture, and the second one used methylene chloride only as solvent in a Soxhlet extraction. […] One and two-dimensional nuclear magnetic resonance, mass spectrometry, X-ray crystallography, and circular dichroism were the methods performed to elucidate and confirm the structures. Furthermore, biological testing against Leishmania sp. and ESKAPE pathogens, Zika virus, Clostridium difficile, and HeLa cancer cells were performed.
Table 1 details the bioactivity of two Alcyopterosins and ACDL-21.

Turning to `Cc1cc2c(c3c1[C@H](CO[N+](=O)[O-])OC3=O)CC(C)(C)C2` [Alcyopterosin E (2), alcyopterosin E], the IC50 (commonly the concentration at which inhibition is half-maximal) is 3.1 µM.
